What was measured:
EGFR1 (HER-1) = EGFR1 (HER-1) (Homo sapiens (Human), UniProt P00533); assay: EGFR1 (HER-1) enzyme assay, fluorescence polarization; format: biochemical; settings: 100 μM ATP, poly(Glu, Tyr) substrate
[1] = system: skin cancer cell line, A431; assay: Inhibitory effect on growth of cancer cell line A431, SRB; format: cell-based; settings: overexpressed EGFR1 (HER-1)
Description: (§1) A skin cancer cell line, A431 (ATCC: CRL-1555), a breast cancer cell line, SK-Br3 (ATCC: HTB-30), and a colon and rectal cancer cell line, SW-620 (ATCC: CCL-227) were used to test the degrees of cancer cell growth inhibition using a culture medium, DEME (Dulbecco's Modified Eagle's Medium, JBI) including 4.5 g/l of glucose and 1.5 g/l of sodium bicarbonate and supplemented with 10% FBS (fetal bovine serum, JBI).
(§2) The cancer cell lines stored in a liquid nitrogen tank were each quickly thawed at 37° C., and centrifuged to remove the medium. The resulting cell pellet was mixed with a culture medium, incubated in a culture flask at 37° C. under 5% CO2 for 2 to 3 days, and the medium was removed. The remaining cells were washed with DPBS (Dulbecco's Phosphate Buffered Saline, JBI) and separated from the flask by using Trypsin-EDTA solution, and the separated cells were diluted with a culture medium to a concentration of 1.0×10^6 cells/ml in case of A431 and SW-620, and 2.0×10^6 cells/ml in case of SK-Br3. 100 μl of the diluted cell solution was added to each well of a 96-well plate, which was incubated at 37° C. under 5% CO2 for 1 day.
(§3) In case that the test compound was not soluble in DMSO, a small amount of 1% HCl was added thereto and treated in a 40° C. water bath for 30 mins until complete dissolution was attained. The test compound solution was diluted with a culture medium to a final concentration of 10 μM, and then diluted 10 times serially to 10^−4. The final concentration of DMSO was less than 1%, and the control compounds of Test Example 1 were used at a concentration of 0.0001 to 10 μM.
(§4) The medium was removed from each well of the 96-well microplate, 100 μl of a diluted test compound solution was added to each well holding cultured cells, and the microplate was incubated at 37° C. under 5% CO2 for 72 hours. After removing the medium from the plate, 50 μl of 10% trichloroacetic acid was added to each well, and the plate was kept at 37° C. for 1 hour to fix the cells to the bottom of the plate. 10% trichloroacetic acid was removed from each well, the plate was dried, 100 μl of an SRB (Sulforhodamine-B, Sigma) dye solution was added thereto, and reacted for 10 mins. The SRB dye solution was prepared by dissolving SRB in 1% acetic acid to a concentration of 0.4%. After removing the dye solution, the plate was washed with water, and dried. When the dye solution was not removed by water, 1% acetic acid was used.
(§5) 150 μl of 10 mM trisma base (Sigma) was added to each well, and the absorbance at 570 nm was determined with a microplate reader (Molecular device).

[2] = system: breast cancer cell line, SK-Br3; assay: Inhibitory effect on growth of cancer cell line SK-Br3, SRB; format: cell-based; settings: overexpressed EGFR2 (HER-2)
Description: as §1, §2, §3, §4, §5

[3] = system: Human Umbilical Vein Endothelial Cell (HUVEC); assay: Inhibitory effect on growth of human umbilical vein endothelial cell (HUVEC), MTS; format: cell-based; settings: 10 ng/ml VEGF, absorbance 490 nm
Protocol: HUVECs (Young Science, Inc) were suspended in a culture medium, EBM-2 (Endothelial Basic Media, Cambrex) supplemented with 2% bovine serum (Cambrex) and auxiliary additives for HUVEC culture (e.g., EGF, VEGF, FGF, etc., Cambrex), inoculated into a culture flask coated with 1% gelatin, and incubated in an incubator at 37° C. under 5% CO2 and 100% humidity.
100 μl of 5% bovine serum medium containing 10 ng/ml of vascular endothelial growth factor (VEGF) and auxiliary additives, while excluding other growth factors was added to each well of a 96-well plate. […] DMSO (Dimethylsulfoxide) was used to dissolve the test compounds, and the final concentration of DMSO was less than 1%.
100 μl of the diluted cell solution was added to each well of the 96-well plate, which was incubated in an incubator for 96 hours.
Then, 20 μl of MTS ([…], Promega) solution was added to each well of the plate, and the plate was incubated in an incubator for 4 hours to induce discoloration. After 4 hours, the pellets were dissolved by way of a thorough shaking, and the absorbance at 490 nm was determined.

[4] = system: colon and rectal cancer cell line, SW-620; assay: Inhibitory effect on growth of cancer cell line SW-620, SRB; format: cell-based; settings: not having overexpressed EGFR and EGFR2
Description: as §1, §2, §3, §4, §5

VEGFR2 (KDR) = VEGFR2 (KDR) (Homo sapiens (Human), UniProt P35968); assay: VEGFR2 (KDR) enzyme assay, fluorescence polarization; format: biochemical; settings: 5 μM ATP, poly(Glu, Tyr) substrate
Chain of VEGFR2 (KDR) (P35968 20-1356): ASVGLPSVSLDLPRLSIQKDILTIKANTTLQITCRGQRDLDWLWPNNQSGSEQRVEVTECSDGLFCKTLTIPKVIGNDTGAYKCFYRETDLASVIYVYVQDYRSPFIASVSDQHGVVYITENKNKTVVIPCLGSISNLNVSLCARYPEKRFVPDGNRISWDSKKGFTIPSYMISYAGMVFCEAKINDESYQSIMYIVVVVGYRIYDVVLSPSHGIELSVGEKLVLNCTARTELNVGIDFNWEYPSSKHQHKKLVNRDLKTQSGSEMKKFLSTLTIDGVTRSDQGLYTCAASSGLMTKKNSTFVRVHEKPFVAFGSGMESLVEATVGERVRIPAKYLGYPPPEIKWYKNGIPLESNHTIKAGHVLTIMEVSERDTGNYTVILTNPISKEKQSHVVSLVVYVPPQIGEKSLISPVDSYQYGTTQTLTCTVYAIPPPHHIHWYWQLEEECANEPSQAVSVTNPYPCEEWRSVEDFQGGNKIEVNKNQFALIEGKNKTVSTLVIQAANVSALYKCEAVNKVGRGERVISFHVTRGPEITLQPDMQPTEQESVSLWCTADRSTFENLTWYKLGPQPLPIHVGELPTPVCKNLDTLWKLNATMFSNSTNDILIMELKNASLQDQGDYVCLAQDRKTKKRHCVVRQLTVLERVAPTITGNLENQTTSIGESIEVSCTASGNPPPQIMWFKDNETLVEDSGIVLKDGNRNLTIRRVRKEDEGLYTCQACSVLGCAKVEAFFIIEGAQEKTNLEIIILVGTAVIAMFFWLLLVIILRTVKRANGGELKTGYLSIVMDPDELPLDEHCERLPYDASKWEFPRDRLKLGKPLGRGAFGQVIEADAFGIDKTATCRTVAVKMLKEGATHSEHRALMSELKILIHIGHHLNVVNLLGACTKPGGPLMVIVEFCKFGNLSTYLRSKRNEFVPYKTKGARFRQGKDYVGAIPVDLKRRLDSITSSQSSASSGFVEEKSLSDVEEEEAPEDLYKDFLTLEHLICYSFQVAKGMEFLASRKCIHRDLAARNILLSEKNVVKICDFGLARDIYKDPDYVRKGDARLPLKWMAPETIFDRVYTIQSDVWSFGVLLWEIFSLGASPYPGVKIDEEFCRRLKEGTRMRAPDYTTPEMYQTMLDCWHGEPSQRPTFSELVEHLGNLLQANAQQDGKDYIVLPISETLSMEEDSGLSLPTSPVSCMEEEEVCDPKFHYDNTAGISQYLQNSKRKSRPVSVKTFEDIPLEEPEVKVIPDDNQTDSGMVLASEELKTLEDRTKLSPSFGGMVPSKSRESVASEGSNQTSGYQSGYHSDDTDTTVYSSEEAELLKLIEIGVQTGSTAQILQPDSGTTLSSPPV
Protocol: VEGFR2 (KDR, Proquinase) enzyme assay (auto-phosphorylation assay) was carried out by using Tyrosine Kinase Assay Kit Green (Panvera). The entire assay was conducted in accordance with VEGFR PTK inhibitor cellular activity test S.O.P.
A typical kinase inhibition reaction requires a protein tyrosine kinase, a suitable buffer solution system, a peptide substrate and ATP. In the present VEGFR tyrosine kinase assay, a buffer solution system containing 20 mM HEPES (pH 7.4), 5 mM MgCl2 and 2 mM MnCl2; 50 μM Na3VO4; 200 ng/10 μl VEGFR (Proquinase); 5 μM ATP; and 10 ng/ml poly(Glu, Tyr) (4:1, Sigma) as a substrate were used.
The compounds of Test Example 1 were used as control compounds at a concentration of 0.0001 to 10 μM. After 10 min, 10 μl of poly(Glu, Tyr) as a substrate was added to each well, and 10 μl of ATP was added thereto to initiate kinase reaction. The plate was incubated at room temperature for 1 hour, and 10 μl of 100 mM EDTA was added to each well to terminate the kinase reaction.
The added EDTA was mixed for 5 min. Thereafter, 10 μl of 10× anti-phosphotyrosine antibody (Panvera), 10 μl of 10×PTK Green Tracer (Panvera) and 30 μl of FP dilution buffer (Panvera) were added thereto, and the plate was incubated in a dark room at room temperature for 30 min.

Chain of EGFR1 (HER-1) (P00533 25-1210): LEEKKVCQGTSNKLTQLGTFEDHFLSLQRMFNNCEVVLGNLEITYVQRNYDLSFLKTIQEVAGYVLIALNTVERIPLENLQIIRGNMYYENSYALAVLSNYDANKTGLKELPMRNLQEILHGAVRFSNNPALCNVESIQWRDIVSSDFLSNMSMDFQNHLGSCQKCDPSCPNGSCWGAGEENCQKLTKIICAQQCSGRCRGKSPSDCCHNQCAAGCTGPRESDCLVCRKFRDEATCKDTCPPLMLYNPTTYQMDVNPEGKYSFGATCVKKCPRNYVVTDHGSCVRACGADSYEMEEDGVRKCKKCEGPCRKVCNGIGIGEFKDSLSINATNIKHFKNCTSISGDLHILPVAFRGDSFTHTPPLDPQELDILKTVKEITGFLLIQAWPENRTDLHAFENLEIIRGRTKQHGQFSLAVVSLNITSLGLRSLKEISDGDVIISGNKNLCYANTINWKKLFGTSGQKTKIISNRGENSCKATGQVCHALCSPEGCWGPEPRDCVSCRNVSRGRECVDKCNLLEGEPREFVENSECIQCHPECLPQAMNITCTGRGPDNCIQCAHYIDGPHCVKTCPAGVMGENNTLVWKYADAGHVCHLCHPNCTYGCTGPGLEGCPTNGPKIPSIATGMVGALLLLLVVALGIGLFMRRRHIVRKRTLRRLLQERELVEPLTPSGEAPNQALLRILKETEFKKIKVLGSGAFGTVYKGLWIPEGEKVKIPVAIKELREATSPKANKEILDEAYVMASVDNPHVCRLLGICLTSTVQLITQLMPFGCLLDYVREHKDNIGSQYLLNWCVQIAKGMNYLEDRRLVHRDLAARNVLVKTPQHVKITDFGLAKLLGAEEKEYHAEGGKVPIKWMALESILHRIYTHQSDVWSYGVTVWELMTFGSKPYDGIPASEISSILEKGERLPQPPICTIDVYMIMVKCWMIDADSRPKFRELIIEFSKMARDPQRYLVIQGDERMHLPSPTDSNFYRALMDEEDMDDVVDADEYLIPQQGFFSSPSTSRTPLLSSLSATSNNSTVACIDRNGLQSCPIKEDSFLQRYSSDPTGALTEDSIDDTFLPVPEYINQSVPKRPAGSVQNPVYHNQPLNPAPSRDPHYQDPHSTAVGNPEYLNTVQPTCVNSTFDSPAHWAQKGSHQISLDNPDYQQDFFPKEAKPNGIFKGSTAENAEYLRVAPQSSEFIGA

IC50 (EGFR1 (HER-1)) [nM]	IC50 ([1]; Homo sapiens, A-431, 72 h) [nM]	IC50 ([2]; Homo sapiens, SK-BR-3, 72 h) [nM]	IC50 ([4]; Homo sapiens, 72 h) [µM]	IC50 (VEGFR2 (KDR)) [nM]	SMILES	IC50 ([3]; 96 hours) [µM]	IC50 ([1]; 72 hours) [nM]	IC50 ([2]; 72 hours) [nM]	IC50 ([4]; 72 hours) [µM]	IC50 ([3]; Homo sapiens, 96 h) [µM]
389	396	1210	–	–	C=CC(=O)N(C)c1cc2c(Nc3ccc(Br)cc3F)ncnc2cc1OCCNC(C)=O [Example 78, N-[7-(2-acetylamino-ethoxy)-4-(4-bromo-2-fluoro-phenylamino)-quinazolin-6-yl]-N-methyl-acrylamide]	–	–	–	–	–
1020	2880	6340	–	–	C=C(C)C(=O)Nc1cc2c(Nc3ccc(Br)cc3F)ncnc2cc1OCCNC(C)=O [Example 76, N-[7-(2-acetylamino-ethoxy)-4-(4-bromo-2-fluoro-phenylamino)-quinazolin-6-yl]-2-methyl-acrylamide]	–	–	–	–	–
–	10000	10000	10	–	Clc1ccc(Nc2nnc(Cc3ccncc3)c3ccccc23)cc1 [Control 1, PTK787, reference compound]	–	–	–	–	0.04
12	9	26	8.53	–	C=CC(=O)Nc1cc2c(Nc3ccc(F)c(Cl)c3)ncnc2cc1OCCNC(C)=O [Example 111, N-[7-(2-acetylamino-ethoxy)-4-(3-chloro-4-fluoro-phenylamino)-quinazolin-6-yl]-acrylamide]	–	–	–	–	–
14	30	27	5.65	–	C=CC(=O)Nc1cc2c(Nc3cc(OC)c(Cl)cc3OC)ncnc2cc1OCCNC(=O)CN(C)C [Example 166, N-{4-(4-chloro-2,5-dimethoxy-phenylamino)-7-[2-(2-dimethylamino-acetylamino)-ethoxy]-quinazolin-6-yl}-acrylamide]	–	–	–	–	–
–	28	2600	4.5	–	COc1cc2c(Nc3ccc(Br)cc3F)ncnc2cc1OCC1CCN(C)CC1 [Control 2, ZD6474, reference compound]	–	–	–	–	0.07
128	368	965	10	–	C=CC(=O)Nc1cc2c(Nc3ccc(Br)cc3F)ncnc2cc1OC1CCCN(C(C)=O)C1 (centres unmarked) [Example 89, N-[7-(1-acetyl-piperidin-3-yloxy)-4-(4-bromo-2-fluoro-phenylamino)-quinazolin-6-yl]-acrylamide]	–	–	–	–	10
94	99	297	0.723	–	C=CC(=O)Nc1cc2c(Nc3ccc(Br)cc3F)ncnc2cc1OC1CCN(C(C)=O)C1 (centres unmarked) [Example 88, N-[7-(1-acetyl-pyrrolidin-3-yloxy)-4-(4-bromo-2-fluoro-phenylamino)-quinazolin-6-yl]-acrylamide]	–	–	–	–	10
222	248	240	9.13	–	C=CC(=O)Nc1cc2c(Nc3ccc(Br)cc3F)ncnc2cc1OCC(C)(C)NC(=O)CN(C)C [Example 154, N-{4-(4-bromo-2-fluoro-phenylamino)-7-[2-(2-dimethylamino-acetylamino)-2-methyl-propoxy]-quinazolin-6-yl}-acrylamide]	–	–	–	–	–
42	47	36	2.7	–	C=CC(=O)Nc1cc2c(Nc3cc(OC)c(Cl)cc3Cl)ncnc2cc1OCCNC(C)=O [Example 132, N-[7-(2-acetylamino-ethoxy)-4-(2,4-dichloro-5-methoxy-phenylamino)-quinazolin-6-yl]-acrylamide]	–	–	–	–	–
–	–	–	–	756	C=CC(=O)Nc1cc2c(Nc3cc(C(=O)NOC)c(Br)cc3F)ncnc2cc1OCCNC(C)=O [Example 131, 5-[7-(2-acetylamino-ethoxy)-6-acryloylamino-quinazolin-4-ylamino]-2-bromo-4-fluoro-N-methoxy-benzamide]	–	–	–	–	0.965
456	468	897	–	–	C=CC(=O)Nc1cc2c(Nc3ccc(Br)cc3C(F)(F)F)ncnc2cc1OCCNC(C)=O [Example 114, N-[7-(2-acetylamino-ethoxy)-4-(4-bromo-2-trifluoromethyl-phenylamino)-quinazolin-6-yl]-acrylamide]	–	–	–	–	–
69	–	179	9.57	–	C=CC(=O)Nc1cc2c(Nc3ccc(Br)cc3F)ncnc2cc1OCCNC(=O)C1CCCN1C (centres unmarked) [Example 98, 1-methyl-pyrrolidine-2-carboxylic acid {2-[6-acryloylamino-4-(4-bromo-2-fluoro-phenylamino)-quinazolin-7-yloxy]-ethyl}-amide]	–	78	–	–	–
24	–	–	–	–	C=CC(=O)Nc1cc2c(Nc3ccc(Br)cc3F)ncnc2cc1OCCNC(=O)C1CCCN1C (centres unmarked) [Example 100, 1-methyl-pyrrolidine-2-carboxylic acid {2-[6-acryloylamino-4-(4-bromo-2-fluoro-phenylamino)-quinazolin-7-yloxy]-ethyl}-amide]	–	25	101	10	–

SMILES	IC50 (EGFR1 (HER-1)) [nM]	IC50 ([1]; Homo sapiens, A-431, 72 h) [nM]	IC50 ([2]; Homo sapiens, SK-BR-3, 72 h) [nM]	IC50 ([4]; Homo sapiens, 72 h) [µM]	IC50 (VEGFR2 (KDR)) [nM]	IC50 ([3]; 96 hours) [µM]	IC50 ([1]; 72 hours) [nM]	IC50 ([2]; 72 hours) [nM]	IC50 ([4]; 72 hours) [µM]	IC50 ([3]; Homo sapiens, 96 h) [µM]
C=CC(=O)Nc1cc2c(Nc3ccc(Br)c(Cl)c3)ncnc2cc1OCCNC(=O)CN(C)C [Example 152]	75	–	–	–	–	10	99	647	10	–
C=CC(=O)Nc1cc2c(Nc3ccc(Br)c(Cl)c3F)ncnc2cc1OC[C@H](C)NC(=O)CN(C)C [Example 158, (S)—N-4-(4-bromo-3-chloro-2-fluoro-phenylamino)-7-[2-(2-dimethylamino-acetylamino)-propoxy]-quinazolin-6-yl-acrylamide]	23.1	–	–	–	–	10	259	381	5.15	–
C=CC(=O)Nc1cc2c(Nc3ccc(Br)cc3F)ncnc2cc1OCC(NC(=O)CN(C)C)C(C)C (centres unmarked) [Example 156, N-{4-(4-bromo-2-fluoro-phenylamino)-7-[2-(2-dimethylamino-acetylamino)-3-methyl-buthoxy]-quinazolin-6-yl}-acrylamide]	149	–	–	–	–	10	196	462	3.27	–
